Data as given in patent US12077503B2, “Substituted cyclic amides and their use as herbicides” (FMC CORPORATION, priority 2015, dated 2024).
Like-named read-outs stand apart in the source and are kept apart here.

Assays:
Assay type in all cases: in vivo
[1] = test system: ryegrass, Italian (Italian ryegrass, Lolium multiflorum); assay: Test A postemergence; settings: Lolium multiflorum, post-emergence, 240 h; for pest or weed control at 125 g/ha: 125 g ai/ha; for pest or weed control at 500 g/ha: 500 g ai/ha, visual injury, approx. 10 d; for pest or weed control at 31 g/ha: 31 g ai/ha, visual injury after approx. 10 d, 0 to 100 scale, 0 no effect, 100 complete control
Outline: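 Each rating is a visual injury score from 0 to 100 given about 10 d after treatment, judged against untreated controls kept alongside in the greenhouse. In loam soil–sand blend, seeds got a preemergence directed soil spray, while postemergence plants were 2 to 10 cm tall at spraying.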

[2] = test system: barnyardgrass (Echinochloa crus-galli); assay: Test B flooded paddy test; settings: Echinochloa crus-galli, Flood, 250 g ai/ha
Outline: (§1)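 Rating scale 0–100 (visual, vs untreated controls) after a 13–15 d greenhouse period; application to the flood layer, 3 cm above soil and maintained; plants at 2-leaf stage when treated.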

[3] = test system: ducksalad (Heteranthera limosa); assay: Test B flooded paddy test; settings: Heteranthera limosa, Flood, 250 g ai/ha
Outline: as §1

rice (Oryra sativa) = assay: Test B flooded paddy test; settings: Oryza sativa, Flood, 250 g ai/ha
Outline: as §1

[4] = test system: sedge, umbrella (small-flower umbrella sedge, Cyperus difformis); assay: Test B flooded paddy test; settings: Cyperus difformis, Flood, 250 g ai/ha
Outline: as §1

[5] = postemergence, visual injury after approximately 10 d, 0 to 100 scale (0 no effect, 100 complete control), read-out: Plant response rating, Ryegrass, Italian
[6] = scale of 0 to 100 where 0 is no effect and 100 is complete control, read-out: Barnyardgrass plant response rating
[7] = scale of 0 to 100 where 0 is no effect and 100 is complete control, read-out: Ducksalad plant response rating
[8] = scale of 0 to 100 where 0 is no effect and 100 is complete control, read-out: Rice plant response rating
[9] = scale of 0 to 100 where 0 is no effect and 100 is complete control, read-out: Sedge, Umbrella plant response rating
[10] = Postemergence, visual rating about 10 d after treatment, read-out: Ryegrass, Italian plant response rating (0 to 100 scale)
[11] = Postemergence, 0 to 100 scale (0 no effect, 100 complete control), read-out: Plant response rating, Ryegrass, Italian
[12] = 360 h, visually evaluated after 13 to 15 d, read-out: Plant response rating, Barnyardgrass (0 to 100 scale where 0 is no effect and 100 is complete control)
[13] = 360 h, visually evaluated after 13 to 15 d, read-out: Plant response rating, Ducksalad (0 to 100 scale where 0 is no effect and 100 is complete control)
[14] = 360 h, visually evaluated after 13 to 15 d, read-out: Plant response rating, Rice (0 to 100 scale where 0 is no effect and 100 is complete control)
[15] = 360 h, visually evaluated after 13 to 15 d, read-out: Plant response rating, Sedge, Umbrella (0 to 100 scale where 0 is no effect and 100 is complete control)
[16] = postemergence, visual injury rating after approximately 10 d, read-out: Ryegrass, Italian plant response rating (0 to 100 scale, 0 no effect, 100 complete control)
[17] = Postemergence, read-out: Plant response rating, Ryegrass, Italian
[18] = 0 to 100 scale where 0 is no effect and 100 is complete control, read-out: Barnyardgrass plant response rating
[19] = 0 to 100 scale where 0 is no effect and 100 is complete control, read-out: Ducksalad plant response rating
[20] = 0 to 100 scale where 0 is no effect and 100 is complete control, read-out: Rice plant response rating
[21] = 0 to 100 scale where 0 is no effect and 100 is complete control, read-out: Sedge, Umbrella plant response rating

O=C1NC[C@H](c2ccc(C3CC3)cc2)[C@H]1C(=O)Nc1ccccc1F [Compound 727]
pest or weed control at 125 g/ha [1, 5]: 0% | pest or weed control at 250 g/ha [2, 6]: 0% | pest or weed control at 250 g/ha [3, 7]: 75% | pest or weed control at 250 g/ha (rice (Oryra sativa); [8]): 25% | pest or weed control at 250 g/ha [4, 9]: 0%

O=C1NC[C@H](c2csc3ccccc23)[C@H]1C(=O)Nc1cccc(F)c1F [Compound 751]
pest or weed control at 125 g/ha [1, 5]: 0% | pest or weed control at 250 g/ha [2, 6]: 40% | pest or weed control at 250 g/ha [3, 7]: 100% | pest or weed control at 250 g/ha (rice (Oryra sativa); [8]): 30% | pest or weed control at 250 g/ha [4, 9]: 0%

CO[C@]1(C(=O)Nc2cccc(F)c2F)C(=O)N(C)C[C@@H]1c1ccc(C(F)(F)F)cc1 (racemic) [Compound 1334]
pest or weed control at 125 g/ha [1, 10]: 0% | pest or weed control at 500 g/ha [1, 11]: 20% | pest or weed control at 250 g/ha [2, 12]: 0% | pest or weed control at 250 g/ha [3, 13]: 90% | pest or weed control at 250 g/ha (rice (Oryra sativa); [14]): 0% | pest or weed control at 250 g/ha [4, 15]: 0%

CN1C[C@H](c2ccc(C(F)F)cc2)[C@@H](C(=O)Nc2cccc(F)c2F)C1=O [Compound 1383]
pest or weed control at 125 g/ha [1, 10]: 40% | pest or weed control at 500 g/ha [1, 11]: 50% | pest or weed control at 250 g/ha [2, 12]: 65% | pest or weed control at 250 g/ha [3, 13]: 100% | pest or weed control at 250 g/ha (rice (Oryra sativa); [14]): 25% | pest or weed control at 250 g/ha [4, 15]: 0%

CN1CC[C@H](c2ccc3c(c2)OC(F)(F)O3)[C@@H](C(=O)Nc2cccc(F)c2F)C1=O [Compound 812]
pest or weed control at 125 g/ha [1, 16]: 30% | pest or weed control at 31 g/ha [1, 17]: 0% | pest or weed control at 250 g/ha [2, 6]: 85% | pest or weed control at 250 g/ha [3, 7]: 90% | pest or weed control at 250 g/ha (rice (Oryra sativa); [8]): 0% | pest or weed control at 250 g/ha [4, 9]: 0%

CN1C[C@H](c2ccc(C(F)(F)F)c(Br)c2)[C@@H](C(=O)Nc2cccc(F)c2F)C1=O [Compound 804]
pest or weed control at 125 g/ha [1, 16]: 0% | pest or weed control at 31 g/ha [1, 17]: 0% | pest or weed control at 250 g/ha [2, 6]: 30% | pest or weed control at 250 g/ha [3, 7]: 80% | pest or weed control at 250 g/ha (rice (Oryra sativa); [8]): 60% | pest or weed control at 250 g/ha [4, 9]: 0%

COc1cc([C@H]2CN(C)C(=O)[C@@H]2C(=O)Nc2cccc(F)c2C)ccc1F [Compound 1300]
pest or weed control at 125 g/ha [1, 10]: 0% | pest or weed control at 500 g/ha [1, 11]: 30% | pest or weed control at 250 g/ha [2, 18]: 65% | pest or weed control at 250 g/ha [3, 19]: 80% | pest or weed control at 250 g/ha (rice (Oryra sativa); [20]): 25% | pest or weed control at 250 g/ha [4, 21]: 0%

CN1C[C@H](c2cccc(C(C)(F)F)c2)[C@@H](C(=O)Nc2ccc(F)cc2F)C1=O [Compound 1319]
pest or weed control at 125 g/ha [1, 10]: 40% | pest or weed control at 500 g/ha [1, 11]: 60% | pest or weed control at 250 g/ha [2, 18]: 90% | pest or weed control at 250 g/ha [3, 19]: 90% | pest or weed control at 250 g/ha (rice (Oryra sativa); [20]): 0% | pest or weed control at 250 g/ha [4, 15]: 0%

Cc1nc([C@H]2CN(C)C(=O)[C@@H]2C(=O)Nc2cccc(F)c2F)cs1 [Compound 1281]
pest or weed control at 125 g/ha [1, 10]: 0% | pest or weed control at 500 g/ha [1, 11]: 0% | pest or weed control at 250 g/ha [2, 18]: 0% | pest or weed control at 250 g/ha [3, 19]: 50% | pest or weed control at 250 g/ha (rice (Oryra sativa); [20]): 0% | pest or weed control at 250 g/ha [4, 21]: 0%

Cc1c(F)ccc([C@H]2CNC(=O)[C@@H]2C(=O)Nc2ccccc2F)c1F [Compound 1326]
pest or weed control at 125 g/ha [1, 10]: 0% | pest or weed control at 500 g/ha [1, 11]: 20% | pest or weed control at 250 g/ha [2, 18]: 0% | pest or weed control at 250 g/ha [3, 19]: 70% | pest or weed control at 250 g/ha (rice (Oryra sativa); [20]): 0% | pest or weed control at 250 g/ha [4, 15]: 0%

CN1C[C@H](c2ccc(C(F)F)cc2)[C@@H](C(=O)Nc2ccc(F)c(F)c2F)C1=O [Compound 1260]
pest or weed control at 125 g/ha ([1]; postemergence, visual injury vs untreated controls after approx. 10 d, 0 = no effect, 100 = complete control, read-out: Ryegrass, Italian plant response rating (0 to 100 scale)): 60% | pest or weed control at 500 g/ha [1, 11]: 80% | pest or weed control at 250 g/ha [2, 18]: 80% | pest or weed control at 250 g/ha [3, 19]: 100% | pest or weed control at 250 g/ha (rice (Oryra sativa); [20]): 50% | pest or weed control at 250 g/ha [4, 21]: 0%
